In assay [1] the test system is diet induced obese (DIO) mice. The experiment in a line: In vivo study of a combination of a NPY5 antagonist and food restriction. Details: species or system Male C57BL/6J mice. The protocol:
Male C57BL/6J mice (CLEA Japan Inc., 14 months old at the beginning of the drug administration) were used. Mice were given water and a regular pellet chow (CE-2, CLEA Japan Inc.) ad libitum. They were kept in an animal room which was maintained at 23±2° C. temperature, 55±15% relative humidity and on a 12-hr light-dark cycle (7:00-19:00) during a quarantine and acclimatization period of 1 week. Before the start of drug administration, mice were fed a MHF diet (Oriental BioService Co., Tokyo, Japan) for about 9 to 10 months until the body weight gain reached a plateau. After the body weight gain reached a plateau, the diet was changed to a powder MHF diet. The powder MHF diet was given by powder feeder (small dishes). Diet and dishes were changed everyday, and the daily food intake was measured. During this period, animals were orally administered vehicle (0.5% methylcellulose in distilled water) by gavage twice-daily. After stable feeding was observed, the amount of new food was adjusted to daily food intake+0.3 g, to minimize the amount of spilled food. After the acclimation period, the […] mice were divided into four groups to match the average values of body weight (initial average body weight was 49 to 51 g) and food intake (n=7-10). Two of the groups were orally administered either vehicle or compound B at a dose of 30 mg/kg twice-daily for 1.5 months by gavage, respectively. Another two groups were treated with vehicle or compound B and given 90% of the average baseline food intake of the each mouse during the acclimation period (10% food restriction). The administration was done one and half hours before the beginning of the dark period following body weight measurement and one and half hours after the beginning of the light period. The amount of food was divided into two meals and given around at 8:00 and 18:00 to avoid a long duration of fasting. Food and body weight were measured.

Assay [2] concerns diet induced obese (DIO) mice. The assay is described as follows: In vivo pair-feeding study with a NPY5 antagonist. Details: species or system Male C57BL/6J mice. The protocol: Compound A, is an orally active, selective NPY5 antagonist (Kanatani et al., 2000, Biochem. Biophys. Research Comm. 272:169-173). Male C57BL/6J mice (CLEA Japan Inc., 16 months old at the beginning of the drug administration) were used. Mice were given water and regular pellet chow (CE-2, CLEA Japan Inc.) ad libitum. They were kept in an animal room which was maintained at 23±2° C. temperature, 55±15% relative humidity and on a 12-hr light-dark cycle (7:00-19:00) during a quarantine and acclimatization period of 1 week.
Before the start of drug administration, mice were fed a MB diet (Oriental BioService Co., Tokyo, Japan) for about 9 to 10 months until the body weight gain reached plateau. After the body weight gain reached a plateau, the diet was change to a powder MHF diet. The powder MEW diet was given by powder feeder (small dishes). Diet and dishes were changed everyday, and daily food intake was measured. During this period, animals were orally administered vehicle (0.5% methylcellulose in distilled water) by gavage once-daily. After stable feeding was observed, the amount of new food was adjusted to daily food intake+0.3 g, to minimize the amount of spilled food. After the acclimation period, the MB diet-fed mice were divided into three groups to match average values of body weight (initial average body weight was 48 to 49 g). Each group was orally administered either vehicle or compound A at a dose of 100 mg/kg once-daily for 1 month, or vehicle by gavage. Food and body weight were measured. The administration was done one and half hours before the beginning of the dark period following the body weight measurement. Four days after drug administration, the pair-feeding was started. The pair-fed amount of food was calculated from the following equations: Average F.I. inhibition of drug treated group (%)=(average F.I. from control group−average F.I. from drug treated group)/average F.I. from control group×100 Pair fed amount of food for each animal=each animal's average F.I. from pre period×(1−average F.I. inhibition of drug treated group (%)) Pair fed mice were given a diet calculated from above inhibition and pre-average F.I. value. The amount of food was divided to two meals and given around at 8:00 and 18:00 to avoid a long duration of fasting. Rectal temperature was measured at 13:00-14:00 by insertion of thermo-probe in the rectum, at the 14, 22, 29, 34th day (10, 18, 25, 30th day for pair-fed group) after the start of treatment. Results

“Also recorded” adds a separate entry of the source.

As for `O=C1OC2(CCN(C(=O)Nc3cnc(-c4ccccc4)cn3)CC2)c2ccccc21` [Compound B, 3-oxo-N-(5-phenyl-2-pyrazinyl)-spiro[isobenzofuran-1(3H),4′-piperidine]-1′-carboxamide], the “body weight, combination with 10% food restriction” value in assay [1] (30 mg/kg twice-daily P.O. plus 10% food restriction, compared with either treatment alone, 30 mg/kg) is “decreased weight than either treatment alone; also recorded: lose more weight than food restriction alone”. In assay [1] (30 mg/kg twice-daily P.O., throughout the treatment period), the food intake result is given as “mildly reduced food intake”. For the same compound, the inhibition at 30 mg/kg in assay [1] (Mus musculus, po, 30 mg/kg twice-daily P.O., 1.5 months, read-out: Inhibitory percentage of cumulative food intake) was determined as 6%. Moreover, in assay [1] (non food restricted, 30 mg/kg twice-daily P.O., 49 day treatment), the body weight entry is listed as “significantly reduced body weight”.
Regarding `CC1(C)CC(=O)C(C2C3=C(CC(C)(C)CC3=O)Oc3ccccc32)C(=O)C1` (stereo not drawn) [Compound A], the “food consumed, less than untreated controls” value in assay [2] (DIO mice chronically treated) was “about 10%”. Further, in assay [2] (DIO mice, 100 mg/kg once-daily P.O., 30 day treatment), the body weight result is “significantly reduced body weight”. Further, the food intake result in assay [2] (DIO mice, 100 mg/kg once-daily P.O., throughout the treatment period) was “mildly reduced food intake”. Further, in assay [2] (DIO mice, 100 mg/kg once-daily P.O., compared with control and pair-fed group, 100 mg/kg), the rectal temperature entry is given as “almost the same as that in the control group; also recorded: drop in body temperature was prevented”. Besides, the inhibition at 100 mg/kg in assay [2] (Mus musculus, po, DIO mice, 100 mg/kg once-daily P.O., 1 month, read-out: Inhibitory percentage of cumulative food intake) is 12.5%.

For the origin of these results see patent US20050288213A1, “Combination therapy for the treatment of obesity” (priority 2002, published 2005).
